Measured values: US9212170B2, “4-alkanoylamino-3-pyrazolone derivative” (Daiichi Sankyo Company, Limited, priority 2012, dated 2015)
Where a name gives a salt, the structure may show the parent alone.

Test system: human liver cancer-derived cell line Hep3B
Assay: In vitro erythropoietin (EPO) induction activity in Hep3B cells (human EPO ELISA of culture supernatant)
Format: cell-based
Conditions: test compound 12.5 μM in 0.5% DMSO, 32 hours at 37° C., EPO in culture supernatant expressed as a multiple of the control (0.5% DMSO = 1), read-out: EPO concentration (multiple)
Method: In vitro erythropoietin (EPO) induction activity of test compounds was evaluated using human liver cancer-derived cell line Hep3B (ATCC, Manassas, Va.). Hep3B cells were cultured overnight at 37° C. in Dulbecco's modified Eagle's medium (DMEM) in the presence of 10% fetal bovine serum (FBS) (24-well plate, 1.0×10^5 cells/well). After replacing with fresh DMEM (+10% FBS) containing a test compound dissolved in 0.5% dimethyl sulfoxide (DMSO) (prepared to a concentration of 12.5 μM) or a solvent control (0.5% DMSO), the cells were cultured for 32 hours at 37° C. After recovering the culture supernatant, EPO concentration in the culture supernatant was quantified using human EPO ELISA kits (StemCell Technologies). The EPO concentration obtained using each test compound was expressed as a multiple of the EPO concentration obtained using the control.

Row | Compound | fold induction at 12.5 µM
1 | CC(=O)Nc1c(C)[nH]n(-c2ccc(C(=O)Nc3ccc(-c4ccccc4)nc3)cn2)c1=O [Example 20, 6-(4-Acetamido-3-methyl-5-oxo-2,5-dihydro-1H-pyrazol-1-yl)-N-(6-phenylpyridin-3-yl)nicotinamide] | 3.7
2 | Cc1[nH]n(-c2ccc(C(=O)Nc3ccc(-c4ccccc4)nc3)cn2)c(=O)c1NC(=O)CCC(=O)OC(C)(C)C [Example 22, Tert-butyl 4-[(5-methyl-3-oxo-2-{5-[(6-phenylpyridyl-3-yl)carbamoyl]pyridin-2-yl}-2,3-dihydro-1H-pyrazol-4-yl)amino]-4-oxobutanoate] | 1.9
3 | CC(=O)Nc1c[nH]n(-c2ccc(C(=O)Nc3ccc(C4CCCCC4)cc3)cn2)c1=O [Example 1, 6-(4-Acetamido-5-oxo-2,5-dihydro-1H-pyrazol-1-yl)-N-(4-cyclohexylphenyl)nicotinamide] | 37
4 | CC(=O)Nc1c(C)[nH]n(-c2ccc(/C=C/c3ccc(C(F)(F)F)cc3)cn2)c1=O [Example 27, N-[5-Methyl-3-oxo-2-(5-{(E)-2-[4-(trifluoromethyl)phenyl]ethenyl}pyridin-2-yl)-2,3-dihydro-1H-pyrazol-4-yl]acetamide] | 2.7
5 | CC(=O)Nc1c[nH]n(-c2cc(COCc3ccccc3)ccn2)c1=O [Example 10, N-(2-{4-[(Benzyloxy)methyl]pyridin-2-yl}-3-oxo-2,3-dihydro-1H-pyrazol-4-yl)acetamide] | 23
6 | CC(=O)Nc1c(C)[nH]n(-c2ccc(C(=O)Nc3ccc(C(F)(F)F)cc3)cn2)c1=O [Example 16, 6-(4-Acetamido-3-methyl-5-oxo-2,5-dihydro-1H-pyrazol-1-yl)-N-[4-(trifluoromethyl)phenyl]nicotinamide] | 3.4
7 | CC(=O)Nc1c(C)[nH]n(-c2ccc(CCc3ccc(C(F)(F)F)cc3)cn2)c1=O [Example 26, N-[5-Methyl-3-oxo-2-(5-{2-[4-(trifluoromethyl)phenyl]ethyl}pyridin-2-yl)-2,3-dihydro-1H-pyrazol-4-yl]acetamide] | 22
8 | CC(=O)Nc1c(C)[nH]n(-c2ccc(C(=O)Nc3ccc(Br)cc3)cn2)c1=O [Example 18, 6-(4-Acetamido-3-methyl-5-oxo-2,5-dihydro-1H-pyrazol-1-yl)-N-(4-bromophenyl)nicotinamide] | 3.3
9 | CC(=O)Nc1c[nH]n(-c2ccc(C(=O)NCc3cccc(-c4ccccc4)c3)cn2)c1=O [Example 11, 6-(4-Acetamido-5-oxo-2,5-dihydro-1H-pyrazol-1-yl)-N-(biphenyl-3-ylmethyl)nicotinamide] | 41
10 | CC(=O)Nc1c[nH]n(-c2ccc(C(=O)Nc3ccc(Cl)cc3)cn2)c1=O [Example 5, 6-(4-Acetamido-5-oxo-2,5-dihydro-1H-pyrazol-1-yl)-N-(4-chlorophenyl)nicotinamide] | 12
11 | CC(=O)Nc1c[nH]n(-c2cc(NCCc3ccccc3)ncn2)c1=O [Example 9, N-(3-Oxo-2-{6-[(2-phenylethyl)amino]pyrimidin-4-yl}-2,3-dihydro-1H-pyrazol-4-yl)acetamide] | 6.1
12 | CC(=O)Nc1c[nH]n(-c2ccc(COCc3ccc(-c4ccccc4)cc3)cn2)c1=O [Example 14, N-(2-{5-[(Biphenyl-4-ylmethoxy)methyl]pyridin-2-yl}-3-oxo-2,3-dihydro-1H-pyrazol-4-yl)acetamide] | 22
13 | CC(=O)Nc1c[nH]n(-c2ccc(COCc3ccccc3)cn2)c1=O [Example 8, N-(2-{5-[(Benzyloxy)methyl]pyridin-2-yl}-3-oxo-2,3-dihydro-1H-pyrazol-4-yl)acetamide] | 26
14 | CC(=O)Nc1c[nH]n(-c2cc(N3CCCCC3)ncn2)c1=O [Example 7, N-[3-Oxo-2-(6-piperidin-1-ylpyrimidin-4-yl)-2,3-dihydro-1H-pyrazol-4-yl]acetamide formate] | 29
15 | CC(=O)Nc1c[nH]n(-c2ccc(C(=O)NCc3ccc(-c4ccccc4C#N)cc3)cn2)c1=O [Example 12, 6-(4-Acetamido-5-oxo-2,5-dihydro-1H-pyrazol-1-yl)-N-[(2′-cyanobiphenyl-4-ylmethyl)]nicotinamide] | 2.8
16 | CC(=O)Nc1c(C)[nH]n(-c2ccc(C(=O)Nc3ccc(Cl)cc3)cn2)c1=O [Example 17, 6-(4-Acetamido-3-methyl-5-oxo-2,5-dihydro-1H-pyrazol-1-yl)-N-(4-chlorophenyl)nicotinamide] | 4.3
17 | CC(=O)Nc1c[nH]n(-c2cc(N3CCOCC3)ncn2)c1=O [Example 6, N-[2-(6-Morpholin-4-ylpyrimidin-4-yl)-3-oxo-2,3-dihydro-1H-pyrazol-4-yl]acetamide formate] | 13
18 | CC(=O)Nc1c(C)[nH]n(-c2ccc(COCc3ccc(C(F)(F)F)cc3)cn2)c1=O [Example 24, N-{5-Methyl-3-oxo-2-[5-({[4-(trifluoromethyl)benzyl]oxy}methyl)pyridin-2-yl]-2,3-dihydro-1H-pyrazol-4-yl}acetamide] | 22
19 | CC(=O)Nc1c(C)[nH]n(-c2ccc(Cc3ccc(C(F)(F)F)cc3)cn2)c1=O [Example 25, N-(5-Methyl-3-oxo-2-{5-[4-(trifluoromethyl)benzyl]pyridin-2-yl}-2,3-dihydro-1H-pyrazol-4-yl)acetamide] | 16
20 | Cc1[nH]n(-c2ccc(C(=O)Nc3ccc(-c4ccccc4)nc3)cn2)c(=O)c1NC(=O)CCC(=O)O [Example 23, 4-[(5-Methyl-3-oxo-2-{5-[(6-phenylpyridyl-3-yl)carbamoyl]pyridin-2-yl}-2,3-dihydro-1H-pyrazol-4-yl)amino]-4-oxobutanoic acid] | 2.7
21 | CC(=O)Nc1c(C)[nH]n(-c2ccc(C(=O)Nc3ccc(C(C)(C)C)cc3)cn2)c1=O [Example 19, 6-(4-Acetamido-3-methyl-5-oxo-2,5-dihydro-1H-pyrazol-1-yl)-N-(4-tert-butylphenyl)nicotinamide] | 13
22 | CC(=O)Nc1c[nH]n(-c2ccc(COCc3ccc(-c4ccccc4C#N)cc3)cn2)c1=O [Example 13, N-[2-(5-{[(2′-Cyanobiphenyl-4-yl)methoxy]methyl}pyridin-2-yl)-3-oxo-2,3-dihydro-1H-pyrazol-4-yl]acetamide] | 29
23 | CC(=O)Nc1c[nH]n(-c2ccc(C(=O)Nc3cccc(C(C)(C)C)c3)cn2)c1=O [Example 3, 6-(4-Acetamido-5-oxo-2,5-dihydro-1H-pyrazol-1-yl)-N-(3-tert-butylphenyl)nicotinamide] | 17
24 | CC(=O)Nc1c(C)[nH]n(-c2ccc(COCc3ccc(-c4ccccc4C#N)cc3)cn2)c1=O [Example 21, N-[2-(5-{[(2′-Cyanobiphenyl-4-yl)methoxy]methyl}pyridin-2-yl)-5-methyl-3-oxo-2,3-dihydro-1H-pyrazol-4-yl]acetamide] | 20
25 | CC(=O)Nc1c[nH]n(-c2ccc(C(=O)Nc3ccc(C(F)(F)F)cc3)cn2)c1=O [Example 4, 6-(4-Acetamido-5-oxo-2,5-dihydro-1H-pyrazol-1-yl)-N-[4-(trifluoromethyl)phenyl]nicotinamide] | 17
26 | CC(=O)Nc1c[nH]n(-c2ccc(COCc3cccc(-c4ccccc4)c3)cn2)c1=O [Example 15, N-(2-{5-[(Biphenyl-3-ylmethoxy)methyl]pyridin-2-yl}-3-oxo-2,3-dihydro-1H-pyrazol-4-yl)acetamide] | 24
27 | CC(=O)Nc1c[nH]n(-c2ccc(C(=O)Nc3ccc(C(C)(C)C)cc3)cn2)c1=O [Example 2, 6-(4-Acetamido-5-oxo-2,5-dihydro-1H-pyrazol-1-yl)-N-(4-tert-butylphenyl)nicotinamide] | 36
